Laboratory results: ChEMBL document CHEMBL1141898, “Halogenated and isosteric cytisine derivatives with increased affinity and functional activity at nicotinic acetylcholine receptors” (Bioorg Med Chem Lett, 2005)

Columns and labels:
[1] = target: T1, Acetylcholine receptor; alpha1/beta1/delta/gamma (Homo sapiens, UniProt P02708+P07510+P11230+Q07001); experiment: Change in membrane potential in TE-671 cells expressing acetylcholine neuromuscular receptors; format: functional, cell-based
[2] = target: T2, Neuronal acetylcholine receptor; alpha3/beta4 (Rattus norvegicus) (UniProt P04757+P12392); experiment: Percentage efficacy in KXalpha-3-beta-4R2 cells expressing rat nicotinic acetylcholine receptor alpha-3 beta4 subunits relative to (1)-epibatidine; format: functional, cell-based
[3] = target: T3, Neuronal acetylcholine receptor; alpha4/beta2 (Homo sapiens, UniProt P17787+P43681); experiment: Percentage efficacy in K-177 cells expressing acetylcholine central neuronal receptor type alpha-4 beta2 subunits as change in membrane potential; format: functional, cell-based
T3 sequence (P17787 whole entry): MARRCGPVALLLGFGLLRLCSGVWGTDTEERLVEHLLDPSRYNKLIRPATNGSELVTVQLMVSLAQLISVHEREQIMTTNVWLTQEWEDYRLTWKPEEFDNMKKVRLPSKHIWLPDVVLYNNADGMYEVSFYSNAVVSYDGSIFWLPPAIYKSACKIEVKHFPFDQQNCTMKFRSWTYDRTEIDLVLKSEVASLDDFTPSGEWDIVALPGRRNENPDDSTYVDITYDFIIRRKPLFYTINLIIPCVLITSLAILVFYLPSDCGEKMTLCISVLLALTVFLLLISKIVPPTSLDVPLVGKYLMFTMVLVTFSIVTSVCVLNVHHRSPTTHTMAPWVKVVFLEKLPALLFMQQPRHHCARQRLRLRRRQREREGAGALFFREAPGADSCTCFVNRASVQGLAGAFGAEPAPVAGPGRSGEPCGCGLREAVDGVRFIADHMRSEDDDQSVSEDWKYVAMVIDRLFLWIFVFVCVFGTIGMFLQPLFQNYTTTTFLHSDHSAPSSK
T3 sequence (P43681 whole entry): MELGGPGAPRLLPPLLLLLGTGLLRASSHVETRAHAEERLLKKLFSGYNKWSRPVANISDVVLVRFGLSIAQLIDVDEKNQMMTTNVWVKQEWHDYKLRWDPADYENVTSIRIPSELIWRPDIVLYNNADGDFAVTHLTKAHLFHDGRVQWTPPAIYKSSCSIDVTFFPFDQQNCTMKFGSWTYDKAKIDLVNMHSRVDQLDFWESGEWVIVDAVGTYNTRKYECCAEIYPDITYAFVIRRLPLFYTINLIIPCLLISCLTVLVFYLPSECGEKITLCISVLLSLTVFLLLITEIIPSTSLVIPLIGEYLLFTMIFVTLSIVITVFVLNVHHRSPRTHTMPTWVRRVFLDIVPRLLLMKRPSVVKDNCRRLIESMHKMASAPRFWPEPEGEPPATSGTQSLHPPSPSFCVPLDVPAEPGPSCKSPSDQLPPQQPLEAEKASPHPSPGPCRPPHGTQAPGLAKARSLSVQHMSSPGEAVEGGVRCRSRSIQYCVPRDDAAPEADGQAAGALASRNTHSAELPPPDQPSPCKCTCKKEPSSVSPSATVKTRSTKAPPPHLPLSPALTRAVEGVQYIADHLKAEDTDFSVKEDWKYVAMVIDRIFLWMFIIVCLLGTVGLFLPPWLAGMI

[4] = target: Neuronal acetylcholine receptor; alpha3/beta4 (Rattus norvegicus, UniProt P04757+P12392); experiment: Effective concentration in KXalpha-3-beta-4R2 cells expressing rat nicotinic acetylcholine receptor alpha3-beta4 subunits; format: functional, cell-based
Chain of Neuronal acetylcholine receptor; alpha3/beta4 (P04757 whole entry): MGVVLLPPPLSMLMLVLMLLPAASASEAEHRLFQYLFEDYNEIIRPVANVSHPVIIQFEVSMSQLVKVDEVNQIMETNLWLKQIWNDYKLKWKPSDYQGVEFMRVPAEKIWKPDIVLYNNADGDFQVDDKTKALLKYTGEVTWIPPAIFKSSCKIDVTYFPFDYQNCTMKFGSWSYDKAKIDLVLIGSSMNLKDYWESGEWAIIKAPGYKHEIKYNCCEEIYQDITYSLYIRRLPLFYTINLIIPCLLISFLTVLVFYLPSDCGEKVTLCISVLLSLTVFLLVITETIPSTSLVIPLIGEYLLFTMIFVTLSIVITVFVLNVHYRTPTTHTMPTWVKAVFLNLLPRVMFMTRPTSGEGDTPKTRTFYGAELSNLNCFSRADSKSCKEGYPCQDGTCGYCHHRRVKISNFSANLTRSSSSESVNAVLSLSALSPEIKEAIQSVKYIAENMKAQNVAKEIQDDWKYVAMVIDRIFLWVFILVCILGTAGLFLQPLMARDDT
Chain of Neuronal acetylcholine receptor; alpha3/beta4 (P12392 whole entry): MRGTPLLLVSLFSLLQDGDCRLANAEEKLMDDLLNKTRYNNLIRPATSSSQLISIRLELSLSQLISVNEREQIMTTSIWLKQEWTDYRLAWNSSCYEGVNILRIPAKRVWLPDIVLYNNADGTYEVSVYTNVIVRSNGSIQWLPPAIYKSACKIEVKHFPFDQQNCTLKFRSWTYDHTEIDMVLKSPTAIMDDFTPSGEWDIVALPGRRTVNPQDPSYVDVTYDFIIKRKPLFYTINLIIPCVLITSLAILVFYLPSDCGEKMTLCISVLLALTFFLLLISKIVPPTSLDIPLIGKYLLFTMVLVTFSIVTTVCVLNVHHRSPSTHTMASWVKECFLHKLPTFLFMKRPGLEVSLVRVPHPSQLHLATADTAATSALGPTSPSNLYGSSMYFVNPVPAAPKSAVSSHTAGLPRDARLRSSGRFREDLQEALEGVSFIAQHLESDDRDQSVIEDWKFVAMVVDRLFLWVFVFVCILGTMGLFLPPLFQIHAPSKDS

[5] = target: T2, Neuronal acetylcholine receptor; alpha3/beta4 (Rattus norvegicus); experiment: Binding affinity (Ki) for rat nicotinic acetylcholine receptor alpha3-beta4 subunits versus 0.5 nM [3H](1)-epibatidine; format: protein-complex assay
[6] = target: Neuronal acetylcholine receptor; alpha4/beta2 (Rattus norvegicus) (UniProt P09483+P12390); experiment: Binding affinity (Ki) for rat brain nicotinic receptors […] alpha-4 and beta2 subunits versus 0.5 nM [3H](1)-epibatidine
[7] = target: T3, Neuronal acetylcholine receptor; alpha4/beta2; experiment: Change in membrane potential in K-177 cells expressing acetylcholine central neuronal receptor alpha4-beta2 subunits; format: functional, cell-based
[8] = target: T1, Acetylcholine receptor; alpha1/beta1/delta/gamma; experiment: Percentage efficacy in TE671 cells expressing acetylcholine neuromuscular receptor as change in membrane potential; format: functional, cell-based; conditions: TE-671

T1 sequence (P02708 whole entry): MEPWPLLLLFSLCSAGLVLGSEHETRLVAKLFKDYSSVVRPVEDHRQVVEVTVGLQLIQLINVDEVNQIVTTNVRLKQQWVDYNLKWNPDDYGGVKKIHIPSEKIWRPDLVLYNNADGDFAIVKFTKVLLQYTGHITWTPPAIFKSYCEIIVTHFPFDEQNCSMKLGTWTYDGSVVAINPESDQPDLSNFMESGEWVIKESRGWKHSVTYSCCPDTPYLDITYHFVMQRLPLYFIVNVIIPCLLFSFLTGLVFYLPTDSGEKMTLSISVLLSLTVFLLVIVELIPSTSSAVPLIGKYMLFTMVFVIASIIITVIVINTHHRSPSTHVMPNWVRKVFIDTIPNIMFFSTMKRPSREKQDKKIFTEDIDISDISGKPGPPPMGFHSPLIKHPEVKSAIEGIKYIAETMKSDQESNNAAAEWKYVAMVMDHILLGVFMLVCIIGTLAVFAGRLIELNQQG
T1 sequence (P07510 whole entry): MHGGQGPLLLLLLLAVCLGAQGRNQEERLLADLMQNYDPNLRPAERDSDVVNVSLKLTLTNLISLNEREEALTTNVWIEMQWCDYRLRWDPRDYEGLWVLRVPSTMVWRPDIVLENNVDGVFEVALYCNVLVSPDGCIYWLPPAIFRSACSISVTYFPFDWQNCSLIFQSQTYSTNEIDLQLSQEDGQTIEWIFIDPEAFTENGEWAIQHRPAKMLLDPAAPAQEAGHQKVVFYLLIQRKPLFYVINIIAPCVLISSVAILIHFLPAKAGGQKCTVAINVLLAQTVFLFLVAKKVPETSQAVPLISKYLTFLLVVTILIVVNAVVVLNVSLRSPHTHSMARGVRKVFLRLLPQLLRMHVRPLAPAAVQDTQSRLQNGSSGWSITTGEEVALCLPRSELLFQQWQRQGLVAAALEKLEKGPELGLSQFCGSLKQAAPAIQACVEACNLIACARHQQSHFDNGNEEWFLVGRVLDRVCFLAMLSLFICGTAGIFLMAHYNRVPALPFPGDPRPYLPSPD
T1 sequence (P11230 whole entry): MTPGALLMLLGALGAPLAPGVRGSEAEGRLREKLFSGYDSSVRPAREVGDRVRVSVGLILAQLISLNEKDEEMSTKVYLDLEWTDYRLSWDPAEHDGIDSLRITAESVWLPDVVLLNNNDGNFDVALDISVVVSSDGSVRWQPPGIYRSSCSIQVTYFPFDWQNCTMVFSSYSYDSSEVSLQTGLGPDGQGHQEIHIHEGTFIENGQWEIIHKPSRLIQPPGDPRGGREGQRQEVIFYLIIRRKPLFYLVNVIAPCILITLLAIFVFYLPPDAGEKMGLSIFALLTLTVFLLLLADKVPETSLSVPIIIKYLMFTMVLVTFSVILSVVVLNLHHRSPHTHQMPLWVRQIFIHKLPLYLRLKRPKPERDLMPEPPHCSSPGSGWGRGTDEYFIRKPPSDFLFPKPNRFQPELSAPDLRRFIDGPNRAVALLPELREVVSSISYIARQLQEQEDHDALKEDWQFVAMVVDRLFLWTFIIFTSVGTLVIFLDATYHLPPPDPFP
T1 sequence (Q07001 whole entry): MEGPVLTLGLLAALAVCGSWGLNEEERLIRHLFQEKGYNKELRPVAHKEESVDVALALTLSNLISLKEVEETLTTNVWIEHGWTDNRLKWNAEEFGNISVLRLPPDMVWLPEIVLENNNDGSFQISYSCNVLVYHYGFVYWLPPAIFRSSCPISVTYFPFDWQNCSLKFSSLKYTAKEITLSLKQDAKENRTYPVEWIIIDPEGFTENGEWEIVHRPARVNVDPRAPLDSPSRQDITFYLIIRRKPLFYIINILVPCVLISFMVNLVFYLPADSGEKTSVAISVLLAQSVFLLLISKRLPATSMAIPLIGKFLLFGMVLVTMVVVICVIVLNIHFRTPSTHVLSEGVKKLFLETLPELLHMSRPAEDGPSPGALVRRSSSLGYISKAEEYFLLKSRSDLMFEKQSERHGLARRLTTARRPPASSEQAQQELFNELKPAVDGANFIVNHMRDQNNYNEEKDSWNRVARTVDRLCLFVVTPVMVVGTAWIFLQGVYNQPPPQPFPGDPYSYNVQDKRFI

SMILES | EC50 [1] [nM] | Efficacy [2] [%] | Efficacy [3] [%] | EC50 [4] [nM] | Affinity [5] [nM] | Affinity [6] [nM] | EC50 [7] [nM] | Efficacy [8] [%]
O=c1c(I)cc(I)c2n1CC1CNCC2C1 (configuration not stated) | > 100 | < 10 | 42 | > 100000 | 4200 | 0.52 | 42 | < 10
S=c1cccc2n1CC1CNCC2C1 (configuration not stated) | > 100 | 10 | 28 | > 100 | 27000 | 0.832 | 2.2 | < 10
Clc1ccc(C2CC3CCC2N3)cn1 (configuration not stated) [EPIBATIDINE] | 0.053 |  | 100 |  | 0.51 | 0.0072 |  | 100
O=c1c(Br)cc(Br)c2n1CC1CNCC2C1 (configuration not stated) | > 100 | < 10 | 23 | > 100 | 45000 | 10.8 | > 100 | < 10
O=c1c(Cl)ccc2n1CC1CNCC2C1 (configuration not stated) | 28 | 71 | 72 | 5.1 | 18 | 0.022 | 0.11 | 53
O=c1c(Cl)cc(Cl)c2n1CC1CNCC2C1 (configuration not stated) | > 100 | < 10 | 20 | > 100 | 39000 | 2.5 | > 100 | 23
O=c1ccc(Br)c2n1CC1CNCC2C1 (configuration not stated) | > 100 |  | 70 | 39 | 380 | 0.308 | 1.1 | < 10
O=c1c(I)ccc2n1CC1CNCC2C1 (configuration not stated) | 45 | 78 | 92 | 0.55 | 7.4 | 0.017 | 0.036 | 46
O=c1ccc(Cl)c2n1CC1CNCC2C1 (configuration not stated) | > 100 | < 10 | 58 | > 100 | 3900 | 2.5 | 4 | < 10
O=c1cccc2n1C[C@@H]1CNC[C@H]2C1 [CYTISINICLINE] | 11 | 62 | 59 | 25 | 220 | 0.124 | 0.42 | 55
O=c1c(Br)ccc2n1CC1CNCC2C1 (configuration not stated) | 31 | 74 | 85 | 0.88 | 7.5 | 0.01 | 0.05 | 59
C[N+]1(C)CC2CC(C1)c1cccc(=O)n1C2 (configuration not stated) | 37 | 29 | 70 | > 100 | 1500 | 0.238 | 41 | 60
